Data taken from the NIST ThermoML archive (doi:10.1016/j.fluid.2014.10.037).
Values joined by “and” are separate entries in the source; they are usually repeats but may differ in a detail not shown here. Identical values can stand only once.

Conditions: Liquid, Closed cell (Static) method

O=Cc1ccco1 [2-furaldehyde]
Conditions | vapor or sublimation pressure [kPa]
353.2 K | 5.9
373.4 K | 13.6
408 K | 46.3

c1ccoc1 [furan]
Conditions | vapor or sublimation pressure [kPa]
353.4 K | 455.1
373.1 K | 735.6
407.9 K | 1513.3

OCc1ccco1 [2-hydroxymethylfuran]
Conditions | vapor or sublimation pressure [kPa]
353.3 K | 2.6
373 K | 7
407.9 K | 30.1

CC(C)O [propan-2-ol]
Conditions | vapor or sublimation pressure [kPa]
353.3 K | 93.8
373.5 K | 200.1
408.3 K | 593.8

Cc1ccco1 [2-methylfuran]
Conditions | vapor or sublimation pressure
353.8 K | 161.8 kPa and 162.6 kPa
357.5 K | 181.5 kPa and 181.7 kPa
358.3 K | 186.5 kPa
362.4 K | 210.5 kPa
362.5 K | 211.1 kPa
363.1 K | 214.9 kPa
367.2 K | 242.1 kPa
367.4 K | 242.7 kPa
367.9 K | 246 kPa
373.4 K | 285.3 kPa
373.6 K | 286.4 kPa
373.9 K | 288.4 kPa
398.2 K | 527.6 kPa
398.4 K | 530.3 kPa
398.8 K | 533.8 kPa
403 K | 587.6 kPa
403.2 K | 591.7 kPa
403.3 K | 592.3 kPa
408.4 K | 667.2 kPa
408.6 K | 670.2 kPa
409 K | 676.7 kPa
